According to PubChem BioAssay (NCI):
Several values for one entry are separate records, joined by “and”; a condition that tells them apart may be missing. Equal values may be shown once.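 Five compound concentrations were applied to cells in 96-well plates for 48 hours; endpoints were derived by simple linear interpolation of the resulting dose-response curve. GI50: concentration for 50% inhibition of growth. TGI: concentration producing complete growth inhibition.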

Assays:
Assay in all cases: DTP human tumour cell line panel, 48 h
[1] = system: KM12 colon
[2] = system: OVCAR-3 ovarian
[3] = system: LOX IMVI melanoma
[4] = system: UO-31 renal
[5] = system: U251 CNS
[6] = system: 786-0 renal
[7] = system: HCT-15 colon
[8] = system: MOLT-4 leukemia
[9] = system: COLO 205 colon
[10] = system: SN12C renal

CC1=CC[C@@H](C(C)(C)O)C[C@@H]1O
TGI [1]: > 5000 µM
TGI [2]: > 5000 µM
TGI [3]: > 5000 µM
TGI [4]: > 5000 µM
TGI [5]: > 5000 µM
TGI [6]: > 5000 µM
TGI [7]: > 5000 µM
TGI [8]: > 5000 µM
TGI [9]: > 5000 µM
TGI [10]: > 5000 µM

Cc1c(Cl)c(C)c(Cl)c(O)c1Cl
TGI [1]: > 100 µM
TGI [2]: 66.5 µM
TGI [3]: > 100 µM
TGI [4]: 42.6 µM
TGI [5]: 37.7 µM
TGI [6]: > 100 µM
TGI [7]: 75.6 µM
TGI [8]: 54.5 µM
TGI [9]: > 100 µM
TGI [10]: > 100 µM

Cc1cnc(-c2ccc(-c3ccc(NC(=O)Nc4c(F)cc(F)cc4F)cc3F)c3c2C(=O)NC3)[nH]1
GI50 [1]: < 0.01 µM
TGI [1]: 2.58 µM and 6.87 µM
GI50 [2]: 1.38 µM and 1.51 µM
TGI [2]: 2.82 µM and 3.02 µM
GI50 [3]: 0.0973 µM and 0.386 µM
TGI [3]: 4.22 µM and 14.5 µM
GI50 [4]: 0.594 µM and 1.46 µM
TGI [4]: > 100 µM
GI50 [5]: 0.433 µM and 0.926 µM
TGI [5]: 1.85 µM and 2.51 µM
GI50 [6]: 1.25 µM
TGI [6]: 2.86 µM
GI50 [7]: 1.82 µM and 0.948 µM
TGI [7]: > 100 µM
GI50 [8]: 0.0686 µM and 0.212 µM
TGI [8]: 13.1 µM and 18.1 µM
GI50 [9]: < 0.01 µM
TGI [9]: 13.2 µM and 27.3 µM
GI50 [10]: 1.29 µM and 0.432 µM
TGI [10]: 4.57 µM and 3.41 µM

Cc1cc(-c2cc(OC(=O)c3ccccc3)ccc2Cl)cc2nnc(Nc3ccc(OCCN4CCCC4)cc3)nc12
GI50 [1]: 1.84 µM
TGI [1]: 3.42 µM
GI50 [2]: 1.6 µM
TGI [2]: 2.97 µM
GI50 [3]: 1.45 µM
TGI [3]: 2.95 µM
GI50 [4]: 1.19 µM
TGI [4]: 2.44 µM
GI50 [5]: 1.65 µM
TGI [5]: 3.16 µM
GI50 [6]: 1.89 µM
TGI [6]: 3.5 µM
GI50 [7]: 0.197 µM
TGI [7]: 0.393 µM
GI50 [8]: 2.01 µM
TGI [8]: 4.74 µM
GI50 [9]: 1.68 µM
TGI [9]: 3.6 µM
GI50 [10]: 1.49 µM
TGI [10]: 3.1 µM

CC[C@@H](C)/C=C(C)/C=C/C(=O)c1c(O)c(-c2ccc(O)cc2)cn(OC2CC(=O)CCC(C)OC(=O)CC2O)c1=O (stereo not given in full)
GI50 [1]: 1.56 µM
TGI [1]: 14.7 µM
GI50 [2]: 0.284 µM
TGI [2]: 14.1 µM
GI50 [3]: 0.171 µM
TGI [3]: 2.7 µM
GI50 [4]: 0.255 µM
TGI [4]: 1.92 µM
GI50 [5]: 0.373 µM
TGI [5]: 12.5 µM
GI50 [6]: 0.386 µM
TGI [6]: 4.09 µM
GI50 [7]: 0.145 µM
TGI [7]: 15.8 µM
GI50 [8]: 0.225 µM
TGI [8]: 12.1 µM
GI50 [9]: 5.97 µM
TGI [9]: 21.2 µM
GI50 [10]: 0.445 µM
TGI [10]: 13.8 µM

COc1ccc(/C=C\c2cc(OC)c(OC)c(OC)c2)c(NS(=O)(=O)c2ccc(F)cc2)c1O
GI50 [1]: 0.0556 µM
TGI [1]: > 100 µM
GI50 [2]: 0.0322 µM
TGI [2]: 1.41 µM
GI50 [3]: 0.142 µM
TGI [3]: 36.8 µM
GI50 [4]: 0.333 µM
TGI [4]: > 82.9 µM
GI50 [5]: 0.142 µM
TGI [5]: > 100 µM
GI50 [6]: 0.294 µM
TGI [6]: 47.5 µM
GI50 [7]: 0.0752 µM
TGI [7]: > 100 µM
GI50 [8]: 0.0466 µM
TGI [8]: > 100 µM
GI50 [9]: 1.93 µM
TGI [9]: 7.94 µM
GI50 [10]: 0.18 µM
TGI [10]: > 100 µM

N#C/C(=C\c1ccc[nH]1)C(=O)c1ccccc1
TGI [1]: > 100 µM
TGI [2]: > 100 µM
TGI [3]: > 100 µM
TGI [4]: > 100 µM
TGI [5]: > 100 µM
TGI [6]: > 100 µM
TGI [7]: > 100 µM
TGI [8]: > 100 µM
TGI [9]: > 100 µM
TGI [10]: > 100 µM
